Reference: patent US20240277743A1, “RESTORING PHYSIOLOGY WITH SMALL MOLECULE MIMICS OF MISSING PROTEINS” (The Board of Trustees Of The University Of Illinois, priority 2014, published 2024)

Columns and labels:
[1] = system: CuFi-1 epithelial monolayers (CFTR-deficient human lung epithelia); test: Airway surface liquid (ASL) height studies by confocal fluorescence microscopy; type: cell-based
Experimental: Human cell lines and growth conditions. NuLi and CuFi-1 cells were cultured at the air-liquid interface as previously described, using a 1:1 mixture of DMEM: Ham's F-12 supplemented with 2% v/v Ultroser G (Crescent Chemical). Zabner, J. et al. Am. J. Physiol. Lung Cell. Mol. Physiol. 284, […]-[…] (2003). The membrane supports used were Millicell 0.4 μm PCF inserts (Millipore PIHP01250) for Ussing chamber studies, Corning Costar 0.4 μm Transwell Clear Polyester Membrane inserts (Corning 3470) for rotational mucus transport studies, and Millicell 1.0 μm PCF inserts (Millipore PIRP15R48) for ASL studies. These membranes were allowed to mature at an air-liquid interface for a minimum of 14 days to reach full differentiation. Airway surface liquid (ASL) height studies. ASL height was studied using an established fluorescent dye assay. Worthington, E. N. et al. Methods Mol. Biol. 742, 77-92 (2011); Myerburg. M. M. et al. Am. J. Respir. Cell. Mol. Biol. 42, 676-684 (2010). Mature, differentiated membranes were grown on Millicell […] polyethylene terephthalate hanging cell culture inserts. Wild type (NuLi) lung epithelia were treated with perfluorocarbon (FC-72) vehicle, and CuFi epithelia were treated with vehicle or 500 nM AmB and incubated for 24 hours at 37° ° C. On the day of imaging. 2.5 μL of a 70 kDa Texas Red-dextran conjugate (Molecular Probes) solution in PBS was added to the apical side of the membranes, followed by 100 μL of FC-770 to prevent evaporation. These were placed on 100 μL of PBS on a 10 mm glass bottom Fluorodish for imaging (World Precision Instruments). Membranes were imaged immediately after dye addition and again at 24 hours to examine dye absorption. Three Z-stack images per membrane in biological n=6 were taken on an Zeiss LSM700 confocal microscope at 40× oil immersion. These images were analyzed using ImageJ to determine the area of fluorescence in the left hand 200-micron width of each image. Images were converted to 8-bit, Gaussian Blur was applied, and made binary. The parameters for Analyze Particles were particles from 1-Infinity μm^2 in size and from 0%-100% circularity.

[2] = system: AmB ion channel in trk1Δtrk2Δ cells; conditions: FIG. 2E
Experimental: Tetraethylammonium block assay. The protocol for the tetraethylammonium block assay was conducted as described in the functional complementation assay above with the addition of 125 nM AmB and the indicated concentration of tetraethylammonium to the normal potassium YPAD media and the indicated concentration of tetraethylammonium to the high potassium (100 mM) YPAD media.

[3] = system: trk1Δtrk2Δ yeast; test: Functional complementation of a protein with a small molecule assay (rescue broth microdilution); type: cell-based, Saccharomyces cerevisiae; conditions: for restoration of trk1Δtrk2Δ cell growth by ion transporting natural products: FIG. 3A
Excerpt: Broth microdilution minimum inhibitory concentration (MIC) assay. The protocol for the MIC broth microdilution assay was adapted from the Clinical and Laboratory Standards Institute document M27-A2 and performed as previously described. Gray, K. C. et. al. Proc. Natl. Acad. Sci. U.S.A. 109, 2234-2239 (2012); Palacios, D. S. et al. J. Am. Chem. Soc. 129, 13804-13805 (2007).
Functional complementation of a protein with a small molecule assay. The protocol for the rescue broth microdilution assay was conducted as described in the MIC assay above with the following additions: trk1atrk2Δ yeast were grown in high potassium (100 mM) YPAD liquid media overnight and transferred to normal potassium YPAD liquid media containing vehicle or the indicated concentration of AmB.

[4] = system: trk1Δtrk2Δ cells; test: 86Rb+ uptake assay; type: cell-based, Saccharomyces cerevisiae; conditions: 3 μM; FIG. 2F
Experimental: ^86Rb^+ uptake assay. The procedure for 86Rb uptake was adapted from Mulet, J. M. et al. Mol. Cell. Biol. 19, 3328-3337 (1999). Overnight yeast cultures were grown as described above. The supernatant was poured off, and the cells were resuspended in sterile water. This wash was repeated two more times. The cells were then resuspended in 40 mL of the potassium starvation/uptake buffer (50 mM succinic acid, 2% glucose, adjusted to pH 5.5 with Tris). After 3 hour incubation in the potassium starvation buffer, cells were centrifuged and washed twice with sterile water. Cells were resuspended in 1 mL of the potassium starvation/uptake buffer. Cell concentration was determined using an INCYTO®; Neubauer disposable hemocytometer, and wild type S. cerevisiae and trk1Δtrk2Δ cells were diluted to the same cell density. 700 μL of the yeast suspension was added to a 1.5 mL Eppendorf tube. After a 5 minute pre-incubation in the potassium starvation/uptake medium, AmB or C35deOAmB was added (final concentration 3 μM) as a DMSO solution. ^86RbCl (1.1 μCi) was then added to the reaction mixtures. Reaction mixtures were vortexed to ensure a homogeneous solution. […] Moist filters were transferred to plastic vials for measuring radioactivity. Radioactivity was monitored using a Perkin Elmer Wizard automatic gamma counter. […]

[5] = system: yeast; conditions: cited from earlier work
[6] = system: small molecule-rescued trk1Δtrk2Δ cells versus wild type; test: Probing sensitivities to known chemical inhibitors assay; type: cell-based, Saccharomyces cerevisiae; conditions: for sensitivity of AmB-rescued trk1Δtrk2Δ cells versus AmB-treated wild type to the inhibitor: AmB rescue, OD600 after 24 hours, FIGS. 3B-3D; for optimum rescue concentration for trk1Δtrk2Δ cells: FIG. 3E legend
Experimental: Probing sensitivities to known chemical inhibitors assay. Overnight cultures were grown as described in the MIC assay. Prior to harvesting cells, small molecules AmB, nystatin A1 (Riedel-de-Haen), candicidin (TOKU-E), or mepartricin (Santa Cruz Biotechnology) and chemical inhibitors nocodazole (Sigma-Aldrich), ebselen (Cayman Chemical), or bafilomycin BI (Santa Cruz Biotechnology were prepared as stock solutions in DMSO. Saturated cell cultures were centrifuged for 5 minutes at 1000×g. The supernatant was poured off, and cells were resuspended in sterile MilliQ water. Cells were centrifuged again, and supernatant was poured off. The wash step was repeated. The supernatant was poured off, and cells were resuspended in normal potassium YPAD. Cells were diluted with normal potassium YPAD to an OD600 of 0.01. Next, an appropriate volume of AmB, nystatin A1, candicidin, or mepartricin was added to give a final rescuing concentration of 125 nM, 1000 nM, 8 nM, and 8 nM, respectively. A control was prepared by adding the corresponding volume of DMSO to trk1Δtrk2Δ cells. 195 μL of WT+small molecule, 195 μL of trk1Δtrk2Δ+small molecule, and 195 μL of trk1Δtrk2Δ+DMSO were added to a 96 well plate. Next, 5 μL of DMSO or chemical inhibitor was added to each well, with each concentration tested in triplicate for both WT and trk1Δtrk2Δ . The plate was covered and incubated at 30° C. for 24 hours. A BioTek Synergy H1 Hybrid Reader was used to measure the OD600. Utilizing GraphPad PRISM, data were fitted by nonlinear regression, inhibition dose response, variable slope (four parameters) to yield EC50 values with SEM. For statistical analysis, EC50 values from the two treatment groups were compared by unpaired t-test.

CCCCNc1cc(C(=O)O)cc(S(N)(=O)=O)c1Oc1ccccc1 [bumetanide]
effect on AmB-mediated ASL restoration ([1]; basolateral addition, inhibits NKCC, FIG. 5D): blocked

CC[N+](CC)(CC)CC [tetraethylammonium]
effect on functional complementation observed with AmB ([2]; 125 nM AmB, normal potassium (10 mM KCl), dose-dependent): inhibited the functional complementation
general toxicity to trk1Δtrk2Δ cells ([2]; permissive conditions (100 mM KCl)): without causing general toxicity

C35-deoxy amphotericin B [C35deOAmB]
restoration of growth in trk1Δtrk2Δ cells ([3]; any tested concentration, FIG. 2D): failed to restore growth
86Rb+ uptake in trk1Δtrk2Δ cells [4]: no uptake
ASL height of CuFi-1 epithelia, compound added apically ([1]; 500 nM AmB, 24 hours, FIGS. 5A, 5B): no increase in ASL height
fungicidal activity [5]: potent fungicidal activity

CO/C1=C\C(C)=C\[C@@H](C)[C@@H](O)[C@@H](C)C/C(C)=C/C=C/[C@H](OC)[C@@H]([C@@H](C)[C@@H](O)[C@H](C)[C@@]2(O)C[C@@H](O)[C@H](C)[C@@H](C(C)C)O2)OC1=O [bafilomycin]
sensitivity of AmB-rescued trk1Δtrk2Δ cells versus AmB-treated wild type to the inhibitor [6]: exceptionally sensitive

COC(=O)Nc1nc2ccc(C(=O)c3cccs3)cc2[nH]1 [nocodazole]
sensitivity of AmB-rescued trk1Δtrk2Δ cells versus AmB-treated wild type to the inhibitor [6]: equally sensitive

mepartricin
restoration of trk1Δtrk2Δ cell growth by ion transporting natural products [3]: Vigorous restoration
optimum rescue concentration for trk1Δtrk2Δ cells [6]: 0.008 µM

C[C@@H]1[C@H](O)[C@@H](C)/C=C/C=C/CC/C=C/C=C/C=C/C=C/C(O[C@H]2O[C@H](C)[C@@H](O)[C@H](N)[C@@H]2O)CC2O[C@](O)(CC(O)C(O)CCC(O)CC(O)CC(O)CC(=O)O[C@H]1C)CC(O)C2C(=O)O (stereo partly drawn) [nystatin]
restoration of trk1Δtrk2Δ cell growth by ion transporting natural products [3]: Vigorous restoration
optimum rescue concentration for trk1Δtrk2Δ cells [6]: 1 µM

candicidin
restoration of trk1Δtrk2Δ cell growth by ion transporting natural products [3]: Vigorous restoration
optimum rescue concentration for trk1Δtrk2Δ cells [6]: 0.008 µM
